Assay [1] relates to Bemisia tabaci. The experiment in a line: Insecticidal activity against Bemisia tabaci (sweet potato whitefly) second-instar larvae infested five weeks old cotton plants followed by compound 250 ppm compound spraying after insect oviposit assessed as insect mortality measured 13 days post compound treatment under green house conditions. It is filed as functional.
Assay [2] relates to Tetranychus urticae. The assay can be described thus: Insecticidal activity against female Tetranychus urticae (two-spotted spider mite) infested cotton leaf disks followed by 2.5 ppm compound spraying after oviposit assessed as insect mortality measured after 6 days post compound application under green house conditions. It is filed as functional. As to conditions: foliar, 144 h.

For assay [3], the system named is Trichoplusia ni.
Assay [4] relates to Spodoptera exigua. The assay can be described thus: Insecticidal activity against Spodoptera exigua second-instar larvae feeded on 400 ppm compound treated lepidopteran diet assessed as insect mortality measured 5 days post compound treatment under green house conditions. Type of assay: functional. Conditions: at 400 ppm.
Assay [5] relates to Aphis gossypii. The assay can be described thus: Insecticidal activity against Aphis gossypii (cotton aphid) infested one week old Crookneck squash plants assessed as insect mortality at 50 ppm measured after 3 days post compound application under green house conditions. Conditions: 72 h. Type of assay: functional.
In assay [6] the test system is Heliothis virescens. The experiment in a line: Insecticidal activity against Heliothis virescens (tobacco budworm) second-instar larvae infested on 400 ppm compound pre-treated cotton cotyledon disk assessed as insect mortality measured 5 days post compound treatment under green house conditions. It is filed as functional.
Assay [7] deals with Aphis gossypii.
Assay [8] has as its system Trichoplusia ni. The experiment in a line: Insecticidal activity against Trichoplusia ni (cabbage looper) second-instar larvae infested on 400 ppm compound pre-treated cabbage leaf disk assessed as insect mortality measured 5 days post compound treatment under green house conditions. Conditions: at 400 ppm. Type of assay: functional.
Assay [9] concerns Bemisia tabaci.

Molecules are shown by their SMILES. Activity calls are given as the source filed them. The rule behind the calls is not given here.

Consider 21 molecules from ChEMBL document CHEMBL3044558, “Structure-activity relationship development of dihaloaryl triazole compounds as insecticides and acaricides. 1. Phenyl thiophen-2-yl triazoles” (2007).

Consider `Cc1c(-c2ccc(OC(F)(F)C(F)Br)cc2)sc(-c2nc(-c3c(F)cccc3Cl)nn2C)c1C` (stereo not given), for which the mortality in assay [1] was determined as 80%; in [4], 70%; in [6] it was 90%. Also, the mortality at 2.5 ppm in assay [2] was determined as 90%. Also, in assay [3], the mortality result is “inactive”. In assay [5], the mortality at 50 ppm was < 50%.

Take `Cc1ccc(-c2sc(-c3nc(-c4c(F)cccc4Cl)nn3C)c(Cl)c2Cl)cc1`: the mortality in [1] was 70%; in assay [4], 70%; in [6], 50%. In addition, the mortality entry in [7] and in assay [3] was “inactive” in each case. Also, the mortality at 2.5 ppm in [2] was found to be 90%.

As to `Cc1sc(-c2nc(-c3c(F)cccc3Cl)nn2C)c(C)c1-c1ccc(C(F)(F)F)cc1`, the mortality is 60% in assay [1], 90% in [4] and 60% in assay [6]. The mortality at 2.5 ppm in [2] came out at 90%. Also, the mortality result in assay [3] was “inactive”. Also, the mortality at 50 ppm in assay [5] is < 50%.

As for `Cc1cc(C2=CCC(OC(F)(F)C(F)Cl)CC2)sc1-c1nc(-c2c(F)cccc2Cl)nn1C` (stereo not given), the mortality in assay [1] worked out at 50%; in assay [4] it was 70%; in assay [6] it was 90%. In assay [2], the mortality at 2.5 ppm was found to be 90%. The mortality result in assay [3] is “inactive”. Also, the mortality at 50 ppm in assay [5] worked out at 90%.

In the case of `CCOc1ccc(-c2cc(Cl)c(-c3nc(-c4c(F)cccc4F)nn3C)s2)cc1`, the mortality entry in assay [7] and in assay [9] was “inactive” in each case. Further, in [2], the mortality at 2.5 ppm was 80%. Besides, the mortality in [4] was 60%; in assay [8], <50%; in assay [6] it was 90%.

Regarding `Cn1nc(-c2c(F)cccc2Cl)nc1-c1sc(-c2ccc(C(C)(C)C)cc2)c(Cl)c1Cl`, the mortality is <50% in [1], 50% in assay [4] and <50% in assay [6]. The mortality at 2.5 ppm in [2] worked out at 60%. Besides, the mortality entry in assay [3] is “inactive”. Also, the mortality at 50 ppm in [5] was 80%.

Take `Cn1nc(-c2c(F)cccc2Cl)nc1-c1sc(-c2ccc(Br)cc2)c(Cl)c1Cl`: the mortality was found to be 50% in assay [1], 70% in assay [4] and 90% in assay [6]. The mortality entry in assay [7] and in assay [3] was “inactive” throughout. Also, the mortality at 2.5 ppm in assay [2] turned out to be 90%.

`CCOc1ccc(-c2c(C)sc(-c3nc(-c4c(F)cccc4Cl)nn3C)c2C)cc1`: the figures for the mortality in assay [1], in assay [4] and in [6] were <50%, 80% and 70%, respectively. Further, the mortality at 2.5 ppm in [2] was < 50%. Further, the mortality result in [3] is “inactive”. Further, the mortality at 50 ppm in assay [5] is < 50%.

With `Cc1sc(-c2nc(-c3c(F)cccc3Cl)nn2C)c(C)c1-c1ccc(C(C)C)cc1`, the mortality at 2.5 ppm in assay [2] is 90%. Moreover, the mortality entry in assay [3] and in [9] was “inactive” each time. In addition, the mortality in assay [4] and in [6] was 80% in each case. Also, the mortality at 50 ppm in [5] was < 50%.

On to `CCOc1cccc(-c2cc(C)c(-c3nc(-c4c(F)cccc4Cl)nn3C)s2)c1`, for which the mortality result in assay [7] and in assay [9] was “inactive” throughout. In addition, the mortality at 2.5 ppm in [2] is 70%. Moreover, the mortality in [4] is recorded as 80%; in assay [8] it was <50%; in assay [6] it was <50%.

As to `Cc1c(-c2ccc(OC(F)(F)C(F)Br)cc2)csc1-c1nc(-c2c(F)cccc2Cl)nn1C` (stereo not given), the mortality in assay [1], in [4] and in assay [6] was 90% throughout. For the same molecule, the mortality at 2.5 ppm in [2] amounted to 90%. Besides, in assay [3], the mortality result was “inactive”. For the same molecule, in assay [5], the mortality at 50 ppm came to 80%.

On to `CCOc1ccc(-c2cc(Cl)c(-c3nc(-c4c(F)cccc4Cl)nn3C)s2)cc1`, for which the mortality entry in assay [7] and in [9] was “inactive” throughout. Moreover, in assay [2], the mortality at 2.5 ppm was found to be 90%. Further, the mortality is 80% in assay [4], 90% in assay [8] and 60% in assay [6].

Consider `Cc1cc(-c2ccc3c(c2)OCCO3)sc1-c1nc(-c2c(F)cccc2Cl)nn1C`, for which the mortality entry in assay [7] and in assay [9] was “inactive” in each case. In addition, in assay [2], the mortality at 2.5 ppm was 90%. In addition, the mortality in assay [4] is given as 80%; in assay [8], 80%; in [6] it was 90%.

In the case of `Cc1cc(C2=CCC(OC(=O)C(F)(F)Br)CC2)sc1-c1nc(-c2c(F)cccc2Cl)nn1C` (stereo not given), the mortality at 2.5 ppm in [2] is 70%. Also, in assay [3], the mortality entry is “inactive”. The values for the mortality in assay [4] and in assay [6] were <50% and 90%, respectively. The mortality at 50 ppm in assay [5] is < 50%.

Turning to `Cc1cc(Oc2ncc(C(F)(F)F)cc2Cl)sc1-c1nc(-c2c(F)cccc2Cl)nn1C`, the mortality was 90% in assay [1], 70% in [4] and 90% in assay [6]. Besides, the mortality at 2.5 ppm in [2] was 90%. For the same molecule, in assay [3], the mortality result was “inactive”. Besides, in assay [5], the mortality at 50 ppm came to 90%.

For `Cc1ccc(-c2cc(Cl)c(-c3nc(-c4c(F)cccc4Cl)nn3C)s2)cc1`, the mortality entry in [7], in [3] and in [9] was “inactive” in each case. Moreover, the mortality at 2.5 ppm in assay [2] was determined as 90%. Moreover, the mortality in assay [4] is reported as <50%; in assay [6], 60%.

Turning to `Cc1c(-c2ccc(C(C)C)cc2)csc1-c1nc(-c2c(F)cccc2Cl)nn1C`, the mortality result in assay [7] and in assay [9] was “inactive” each time. In addition, the mortality at 2.5 ppm in assay [2] was 90%. Moreover, the values for the mortality in assay [4], in [8] and in assay [6] were 80%, 50% and 90%, respectively.

For `Cc1c(-c2nc(-c3c(F)cccc3Cl)nn2C)sc(Br)c1-c1ccc(OC(F)(F)C(F)Br)cc1` (stereo not given), the mortality was <50% in [1], 80% in [4] and 90% in [6]. The mortality at 2.5 ppm in [2] was found to be 90%. In assay [3], the mortality entry is “inactive”. Further, the mortality at 50 ppm in assay [5] was < 50%.

Turning to `Cn1nc(-c2c(F)cccc2Cl)nc1-c1sc(-c2ccc(-c3ccccc3)cc2)c(Cl)c1Cl`, the mortality in [1] was <50%; in assay [4], 50%; in assay [6], 90%. For the same molecule, in [2], the mortality at 2.5 ppm was 80%. Moreover, the mortality result in assay [3] was “inactive”. Moreover, in assay [5], the mortality at 50 ppm is 90%.

For the molecule `CCOc1ccc(-c2cc(C)c(-c3nc(-c4c(F)cccc4Cl)nn3C)s2)cc1`, the mortality is on record as <50% in assay [1], 80% in assay [4] and 60% in assay [6]. Moreover, the mortality entry in assay [7] and in assay [3] was “inactive” throughout. In addition, the mortality at 2.5 ppm in assay [2] was found to be 90%.

In the case of `Cn1nc(-c2c(F)cccc2Cl)nc1-c1sc(-c2ccc(C(F)(F)F)cc2)c(Br)c1Cl`, the mortality at 2.5 ppm in assay [2] came to 90%. The mortality entry in assay [3] and in [9] was “inactive” throughout. Further, the mortality in assay [4] and in assay [6] was 90% each time. For the same molecule, the mortality at 50 ppm in [5] is < 50%.
